Results as given in patent US20050019855A1, “Methods to increase the productivity of meterologous gene expression” (priority 2001, published 2005).

Legend:
Format in all cases: cell-based, Nicotiana tabacum
[1] = system: stably transformed tobacco cells; assay: Transport time course in protoplasts from stably transformed tobacco cells incubated with BFA; conditions: stable transformants, 30 μg/ml BFA, 240 minute period (FIG. 18)
Method: The experiment shown in FIG. 17 was conducted using a standard transient expression assay with a 24-hour incubation period. This is a long time-period and it is possible that prolonged inhibition of the recycling of essential COPII vesicle budding components leads eventually to an inhibition of anterograde transport. […] To test this, we have carried out a transport experiment in which stably transformed tobacco cells were incubated for different time-periods in the presence of BFA. Under these circumstances, protoplasts contain a steady state level of amy or amy-HDEL from the very beginning of the experiment. This steady state level is very high for amy-HDEL, thus secretion of the cargo into the medium should be detected with high sensitivity if BFA first inhibits […] retrograde transport while COPII anterograde transport is still efficient. […] It was not possible to detect a transient induction of amy-HDEL secretion prior to the inhibition of amy secretion.

tobacco protoplasts [2] = assay: Transient expression transport assay for phytepsin, read by protein gel blot of medium and cells; conditions: increasing BFA concentration (FIG. 22)
Source text: Transient expression experiment showing the influence of BFA (indicated above each lane in μg/ml final concentration) on secretion to the medium (M), intracellular retention (C) and the partitioning between processed (closed arrows) and un-processed (open arrows) forms of phyteposin. Note that BFA inhibits both secretion and intracellular processing of phytepsin.
(§1) Tobacco leaf protoplasts were electroporated as described (Denecke and Vitale, 1995), and plasmid concentrations used are given in the figure legends. Harvesting of cells and culture medium as well as the enzymatic assays were done as described previously (Denecke and Vitale, 1995; Crofts et al., 1999; Leborgne-Castel et al., 1999). Equal volumes of cells and medium were loaded on protein gel blots or analysed via enzymatic assays to determine the fraction of the marker proteins inside and outside of the cells and to calculate the secretion index (Denecke et al., 1990). Membrane recruitment was assessed by an osmotic shock procedure described previously (Denecke et al., 1990; Denecke et al., 1992).
Samples were loaded after twofold dilution with 2×SDS-PAGE loading buffer (200 mM Tris-Cl, pH 8.8, 5 mM EDTA, 1 M sucrose, and 0.1% bromophenol blue). Proteins in SDS-polyacrylamide gels were transferred onto a nitrocellulose membrane and then blocked with PBS, 0.5% Tween 20, and 5% milk powder for 1 hr. […]

tobacco protoplasts [3] = assay: Transient expression transport assay: secretion index and total activity of α-amylase cargo molecules
Source text: as §1
Protoplasts were extracted in α-amylase extraction buffer (Crofts et al., 1999) via sonication for 5 seconds. In all cases, extracts were cleared by 10 min centrifugation at 2500 g at 4° C. and the supernatant was recovered. α-amylase activity was determined as described (Crofts et al., 1999).
It is established that the molecular target of BFA is the guanosine nucleotide exchange factor for ARF1p, resulting in a stabilisation of an abortive complex with the GDP-bound form of ARF1p at the Golgi membrane. To test if inhibition of retrograde and anterograde transport can be dissected, we decided to utilise the secreted cargo molecule α-amylase (amy) and its derivative carrying an ER retention signal (amy-HDEL), which permits a quantitative analysis of transport rates in tobacco leaf protoplasts (FIGS. 1-6). We have shown before that the secretion index (SI), the ratio between extra- and intracellular activities, provides a simple way to compare relative transport rates at a defined time-point. In addition, amy and amy-HDEL have identical specific enzyme activity and stability throughout the secretory pathway. While both molecules are expected to have identical ER export properties (FIG. 16, route 1), only amy-HDEL can undergo retrograde transport from the Golgi (FIG. 16, route 2). If saturation of the HDEL receptor occurs, amy-HDEL is expected to reach the cell surface in the same manner as amy (FIG. 16, routes 3 and 7). We now tested the influence of different concentrations of BFA on the transport of either cargo molecules via transient gene expression in tobacco protoplasts. […] This effect is less obvious for amy-HDEL.

[4] = 24-hour incubation, increasing BFA concentration (FIG. 17)

In the case of `C[C@H]1CCC/C=C/[C@@H]2C[C@H](O)C[C@H]2[C@H](O)/C=C/C(=O)O1` [BFA, Brefeldin A], the “secretion of amy, secretion index over time” value [1] is reported as “only inhibits the secretion of amy”, the “secretion of amy-HDEL, secretion index over time” value [1] is reported as “slightly induced after prolonged incubation (80 minutes and more)” and the “intracellular processing of the phytepsin precursor” value (tobacco protoplasts [2]) is reported as “inhibits processing of the phytepsin precursor”. The “secretion of phytepsin precursor to the medium” value (tobacco protoplasts [2]) was “secretion was inhibited at the lowest concentration of BFA used”, the “total activity (medium+cells) of amy-HDEL” value (tobacco protoplasts [3]; 24-hour incubation, BFA present (FIG. 17 lower panel)) was “slightly increased total activity for amy-HDEL” and the “total amount of α-amylase (amy) produced (medium+cells)” value (tobacco protoplasts [3]; 24-hour incubation, BFA treatment (FIG. 17)) was “reduction in the total amount of α-amylase”. For the same molecule, the “secretion of amy-HDEL, secretion index” value (tobacco protoplasts [3]; [4]) was “hardly influenced by the drug”, the “secretion of α-amylase (amy), secretion index” value (tobacco protoplasts [3]; [4]) was “concentration-dependent inhibition of α-amylase secretion” and the “secretion of amy-spo to the medium” value (tobacco protoplasts [3]; increasing BFA concentration (FIG. 25B)) was “does not induce secretion of the cargo molecule”.
